Reference: ChEMBL document CHEMBL3507680, “University of Dundee, Gates Library screen for HepG2 cell viability”

Assay: Human HepG2 cell viability assay in 384 well format
Assay type: toxicity, cell-based
Parameters: dose 125 nL, time 70.5 hour; cytotoxicity at 70.5 h: concentration not given beside the values
Conditions: HepG2 cells, read-out: Inhibition

Compound	cytotoxicity at 70.5 h
O=C1CC(c2cccnc2)C2(CCN(C(=O)c3ccncc3)CC2)N1 (stereo not given)	-1.04%
Cc1occc1C(=O)N1CCC2(CCC2NC(=O)c2ccn(C)c2)CC1 (stereo not given)	-2.29%
O=C1CC[C@@H]2[C@@H](CCN2C(=O)c2ccsc2)N1CC1CC1	-6.8%
NC(=O)N1CCC2(CC1)CN(c1ccsc1)C(=O)CO2	17.7%
COCCC(=O)N1CCC2(COCc3cnc(-c4ccccc4)nc32)C1 (stereo not given)	2.54%
CCS(=O)(=O)N1C[C@H]2C[C@H](C(=O)N(C)C)[C@@H](C1)O2	-19.2%
CN(C)[C@@H]1CCN(C(=O)c2ccsc2)[C@H]1Cc1cnn(C)c1	-14.4%
COc1ncccc1CN1CCn2c(Cn3cncn3)cnc2C1	20.3%
Cc1cc(C(=O)N2CCC(n3nc(C)cc3C)C2)c2ccc(F)cc2n1 (stereo not given)	-9.21%
Cc1ccc(F)c(C(=O)N2C[C@@H](C(=O)O)[C@H](c3ccccc3)C2)c1Cl	1.54%
COCC[C@]1(O)CCN(Cc2nc(C(C)C)cs2)C[C@H]1C	-6.41%
COCCN1CC2(CCC1=O)CCN(Cc1nnc(C)o1)CC2	-5.52%
Cc1ncsc1C(=O)NCc1cccnc1N(C)CCc1ccccn1	-5.9%
O=C1[C@H]2CC[C@H](CN(c3ncnc4ccsc34)C2)N1CC1CC1	-11%
Cc1nc(N(C)C)nc(-c2cccc(-c3ccn(CCCO)n3)c2)c1C	-7.13%
CN1[C@H]2CC[C@@H]1CN(C(=O)CCc1csc(N)n1)CC2	-11.5%
CC(C)C1CN(Cc2nccn2C)CCC(=O)N1CC1CC1 (stereo not given)	-2.87%
CCCn1c(C)c(CC(=O)N(C)CCO)c2c1CC(C)(C)CC2=O	26.2%
Cc1ccc(S(=O)(=O)NCC2CNCCOC2)cc1Cl (stereo not given)	-2.6%
Cc1ccc2nc(C)c(C)c(C(=O)N3CCC4(CCO4)CC3)c2c1	-5.61%
CCN(Cc1cnn(C)c1)C[C@H]1CC[C@@H](Cc2ccc(C#N)cc2)O1	-17.4%
C=C(C)CNC(=O)C1CCC(=O)N(C2CCCC2)C1 (stereo not given)	-2.49%

Compound	cytotoxicity at 70.5 h
Cc1nc(CN2CCC3(CCCO3)CC2)c2ccccn12	14.9%
CN(Cc1nc(COc2ccccc2)no1)CC1Cc2ccccc2O1 (stereo not given)	-3.44%
COC(C)(C)C(=O)N[C@H]1CN(c2ncccc2C(N)=O)C[C@@H]1C(C)C	0.335%
Cc1nc(C(C)NCc2cc(O)c3cccc(F)c3n2)cs1 (stereo not given)	-6.76%
CCc1nnc(NC(=O)CCN2CC=C(c3cnn(C)c3)CC2)s1	-7.5%
Cc1nn2c(NCC(N)=O)cc(-c3ccccc3)nc2c1C	15.2%
CCc1cnc(NCc2nc(COC)no2)nc1	-11.1%
Cc1cc(C(=O)NC2CCCCNC2=O)c(=O)[nH]c1C (stereo not given)	-6.38%
CCOCCC(=O)Nc1cc(C(N)=O)ccc1N1CCCC(C)C1 (stereo not given)	-2.01%
CC(C)[C@@H]1CN(Cc2ccsc2)C[C@H]1NS(=O)(=O)N(C)C	1.27%
CN(Cc1ccc2nsnc2c1)CC1(O)CCNC1 (stereo not given)	-5.93%
CCN1CCC(CNS(=O)(=O)N2CCc3ccccc3C2)C1 (stereo not given)	6.73%
CC(C)c1noc(CN(Cc2cccnc2)C2CN3CCC2CC3)n1 (stereo not given)	52.5%
Cc1ccc2cc(C3(O)CCN(C(=O)CSC(C)C)CC3)ccc2n1	-6%
O=C(O)C1(n2cccn2)CCN(Cc2nc(-c3ccccc3)no2)CC1	-9.66%
COc1cccc(CC(=O)N2CCc3ncnc(NCCO)c3CC2)c1	-9.99%
CNS(=O)(=O)CCn1cc(-c2ccc(NC(C)=O)cc2)nn1	3.8%
O=C(N[C@H]1CN(C2CCOCC2)C[C@@H]1C1CC1)c1cc(O)no1	-7.33%
COc1nccc(N2CC[C@H](N3CCOCC3)[C@H](CCCO)C2)c1C#N	-7.48%
COCCN1CC2(CCCN(C(=O)CCCc3cccs3)C2)CCC1=O (stereo not given)	9.49%
Cc1ccccc1-n1ncc(C(C)N)c1C (stereo not given)	26.7%
CC(=O)Nc1ccc2nc(-c3nccn3CCCN(C)C)ccc2c1	-8.35%

Compound	cytotoxicity at 70.5 h
OCC1CCN(C[C@@H]2CN(C3Cc4ccccc4C3)C[C@@H]2CO)CC1	-4.9%
Cc1ccc(OCC(=O)N2CCOCC(O)(CN3CCCC3)C2)cc1C (stereo not given)	27.8%
CCc1cnc(C)nc1N1CCN(Cc2ccc(-c3cc[nH]n3)o2)CC1	9.84%
Cc1c(-c2nnc(SCC(=O)O)n2C(C)c2ccccc2)cnn1C (stereo not given)	-12.3%
CCc1cc(NCCC(F)(F)F)nc(N2CCOCC2)n1	-7.87%
C=C(C)COc1cccc(C(=O)N2CCC(O)(c3ccccc3)CC2)c1	7.64%
Cc1ccccc1N1CC(C)N(Cc2ccc(C)c(F)c2F)CC1=O (stereo not given)	5.81%
CC(C)(C(=O)NCC1CCN(Cc2ccccn2)C1)c1ccccc1 (stereo not given)	18.1%
CCc1ccc(C(=O)N2CC[C@](C)(O)C(C)(C)C2)[nH]1	-3.24%
O=C(C1CCCO1)N1CCC(Cn2cc(C3CCCC3)nn2)CC1 (stereo not given)	2.36%
O=C(CCn1cncn1)N1CCCC(CO)(CCCc2ccccc2)C1 (stereo not given)	15.8%
CC(=O)N[C@@H]1CN(Cc2ccccc2-n2nc(C)cc2C)C[C@H]1C(C)C	-7.15%
Cc1ccccc1CC(=O)N1CCCn2cncc2C1	-9.13%
Cc1cc(NC2CCCN(Cc3ccc(F)cc3)C2)n2nc(C)cc2n1 (stereo not given)	-0.0493%
Cc1[nH]c2ccc(Cl)cc2c1CCNc1ncnc2c1CCNC2	-6.2%
CCCN1CCC=C(C2c3nc[nH]c3CCN2C(=O)c2ccco2)C1 (stereo not given)	22.4%
O=C(Cn1[nH]c2ccccc2c1=O)N1CCCC(CC2CC2)(C(=O)O)C1 (stereo not given)	-7.99%
CNC(=O)c1ccnc(CC2COc3c(cccc3OC)C2)c1 (stereo not given)	-25.4%
CCNc1ncc(CN(Cc2ccccc2)CC(C)CO)cn1 (stereo not given)	-4.08%
CC(C)Nc1cc(N2CCN(Cc3ccccc3)C(CCO)C2)ncn1 (stereo not given)	-1.73%
Cc1nc(O)cc(C2CCN(C(=O)C(C)Cn3nc(C)nc3C)CC2)n1 (stereo not given)	-4.5%
C[C@@H](O)[C@H](NC(=O)c1csc2nc(-c3ccccc3F)cn12)C(N)=O	2.4%

Compound	cytotoxicity at 70.5 h
CCC(CO)N(Cc1ccccn1)Cc1ccc(-c2ccn[nH]2)s1 (stereo not given)	-14%
CNC(=O)C1CCN(c2ncc3c(n2)CCN3c2ccccc2)C1 (stereo not given)	-4.33%
Cc1nc2c(c(N3C[C@@H](C)[C@@](C)(O)C3)n1)CCC2	22.5%
CC(C)[C@@H]1CN(c2ccc(F)cn2)C[C@H]1NS(C)(=O)=O	12.1%
CN1CCC(N(C)C[C@H]2CC[C@@H](Cc3cccc(O)c3)O2)CC1	43.7%
COCCC1(C(=O)O)CCCN(CCOCc2ccccc2)C1 (stereo not given)	-3.38%
Cc1cc2c(N3CCCC(OCc4cccnc4)C3)ncnc2s1 (stereo not given)	-9.75%
Nc1nc(NCCO)cc(N2CCc3c([nH]c4ccccc34)C2)n1	-7.97%
CC(C)c1cc(NCC(O)c2ccncc2)n2nccc2n1 (stereo not given)	14.4%
Cc1cc(C)n(Cc2cc(C(=O)N3CCCC3c3ccccn3)n[nH]2)n1 (stereo not given)	-17.2%
Cc1ccc(OCC(O)CNC(=O)C2(c3ccc(F)cc3)CC2)cc1 (stereo not given)	-7.12%
Cc1c(C(=O)N2CCN(C)[C@@H]3CS(=O)(=O)C[C@@H]32)[nH]c2ccc(F)cc12	-1.69%
CCCN1CCCC2(CCN(Cc3cncn3C3CCCC3)C2)C1=O (stereo not given)	-8.03%
Cc1nc2c(c(N3CCCC(OCc4ccccn4)C3)n1)CCNCC2 (stereo not given)	-14.9%
CCSCCC(=O)N1CCc2[nH]nc(COc3ccccc3)c2C1	23.8%
CCn1cc(CN(C)C(=O)C(c2ccccc2C)N(C)C)cn1 (stereo not given)	-1.5%
COCC(=O)N1CCC(Oc2cccc(C)c2)CC1	-16%
CN(CCCO)c1nc(-c2ccc(C(N)=O)cc2)nc2c1CCNC2	-13.3%
CCc1csc(CNc2cc(C)nc(-c3cccnc3)n2)n1	-7.79%
O=C(CCn1ccccc1=O)N1CCN(Cc2cccc(Cl)c2)CC1	-12.6%
O=C(NC1CCCCC1)N1CCC(n2cc(-c3ccccn3)nn2)CC1	-6.7%
CC1=CCN(S(=O)(=O)c2cccc(C(=O)N3CCCN(C)CC3)c2)CC1	-10.6%

Compound	cytotoxicity at 70.5 h
CCn1c(N)nc2cc(C(=O)NCCc3nnc(C)s3)cnc21	-24.8%
CC(=O)N1CCC(N2CCOC(CC3CCCCC3)C2)CC1 (stereo not given)	-4.68%
CN(C)c1nc2c(c(N3CCc4ccccc4C3)n1)CCNC2	0.802%
C=C(C)COc1ccccc1CNCCc1c[nH]cn1	2.66%
O=C(NCCN1CCc2ccccc21)c1cc(-c2ccc(O)cc2)n[nH]1	46.5%
COc1ccc(CC2(CO)CCN(c3cc(C#N)ccn3)CC2)cc1	-3.42%
CCc1noc(CN(CC)C(=O)c2ccc3ncsc3c2)n1	4.54%
C[C@@H]1CN(C(=O)c2ccc(=O)[nH]c2)CC[C@@]1(O)C1CCOCC1	1.36%
CCOCCNc1nc(-c2ccncc2)nc2c1CCNCC2	-4.23%
COc1cccc(Cn2ncc(N(C)CCc3ccccc3)cc2=O)c1	-6.35%
Cc1oncc1S(=O)(=O)N1CCCC(C)(Cc2ccc3c(c2)OCO3)C1 (stereo not given)	14.3%
CC(C)CCC1=NC2(CCN(C(=O)CN3CCCC3=O)CC2)C(=O)N1	-5.52%
O=S(=O)(CC1CC1)c1ncc(CN2CCSCC2)n1CC1CCCO1 (stereo not given)	-6.13%
CCSC(C)c1nc(-c2ccc(C)nn2)no1 (stereo not given)	4.73%
O=C(NCc1cncc2c1CCN(Cc1cccs1)C2)C1CC1	-13.8%
CN1CCCc2c1nc1c(c2N)CCCC1	23%
Fc1ccc(CN2CC[C@H]3O[C@@H](COCC4CCOCC4)CC[C@H]32)cc1	18.1%
CN(C)CC(=O)N1CCC2(CC1)CN(c1ccsc1)C(=O)CO2	21%
COCCN1C(=O)C[C@H]2[C@H]1CCN2Cc1ccc(OC)cc1	-7.39%
N#Cc1cccc(CN2CC[C@@H]3[C@@H]2CC(=O)N3Cc2cccnc2)c1	-18.9%
c1ccc(CN2CC[C@@H]3O[C@H](COCc4ccncc4)CC[C@@H]32)nc1	-13%
c1ccc(CN2C[C@@H]3OCCN(c4ncccn4)[C@@H]3C2)nc1	-12.9%
